Measurements taken from patent US11840686B2, “Modulation of prekallikrein (PKK) expression” (Ionis Pharmaceuticals, Inc., priority 2013, dated 2023).
Strand notation (5' to 3'): a small letter for the sugar, then the base; units joined by * are phosphorothioate-linked, units joined directly phosphodiester-linked; [ ] holds rarer units or linkages, { } end groups; capitals alone tell only the bases. e = 2'-O-(2-methoxyethyl) (MOE); [5mC] = 5-methylcytosine; d = 2'-deoxy (DNA)

Tested on: human PKK mRNA
Assay: Antisense inhibition of human PKK mRNA in HepaRG cells, 5,000 nM (Example 2)
Type: cell-based
Method in brief: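 HepaRG cells (20,000/well) electroporated with 5,000 nM MOE gapmer (phosphorothioate backbone, 5-methylcytosines) and harvested after ~24 h. PKK mRNA measured by qRT-PCR with primer probe set RTS3454, normalized to RIBOGREEN total RNA; percent inhibition versus untreated cells.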

[1] = HepaRG cells, 5,000 nM antisense oligonucleotide, 5-10-5 gapmers, Table 17
[2] = HepaRG cells, electroporation, 5,000 nM antisense oligonucleotide, approx. 24 hours, primer probe set RTS3454, relative to untreated control cells, Table 11
[3] = HepaRG cells, electroporation with 5,000 nM antisense oligonucleotide, approximately 24 hours, PKK mRNA by RT-PCR (RTS3454), relative to untreated control cells, Table 5 experiment
[4] = Table 13, human PKK mRNA in HepaRG cells, 5-10-5 gapmers
[5] = HepaRG cells, electroporation with 5,000 nM antisense oligonucleotide, approximately 24 hours, PKK mRNA by RT-PCR (RTS3454), relative to untreated control cells, Table 6 experiment
[6] = Table 7, HepaRG cells, electroporation with 5,000 nM antisense oligonucleotide, approx. 24 hours, PKK mRNA by RT-PCR (RTS3454), relative to untreated control cells
[7] = human PKK mRNA, HepaRG cells, 5,000 nM antisense oligonucleotide, Table 18
[8] = Table 9 experiment, HepaRG cells, 20,000 cells per well, electroporation with 5,000 nM antisense oligonucleotide, approx. 24 hours, PKK mRNA by RT-PCR (RTS3454), relative to untreated control cells
[9] = Table 10 experiment, HepaRG cells, 20,000 cells per well, electroporation with 5,000 nM antisense oligonucleotide, approx. 24 hours, PKK mRNA by RT-PCR (RTS3454), relative to untreated control cells
[10] = HepaRG cells, electroporation, 5,000 nM antisense oligonucleotide, approx. 24 hours, primer probe set RTS3454, relative to untreated control cells, Table 12
[11] = human PKK mRNA, HepaRG cells, 5-10-5 motif oligonucleotides targeting SEQ ID NO: 1 and 10
[12] = human PKK mRNA in HepaRG cells, 5-10-5 gapmers, Table 14
[13] = Table 8, HepaRG cells, electroporation with 5,000 nM antisense oligonucleotide, approx. 24 hours, PKK mRNA by RT-PCR (RTS3454), relative to untreated control cells
[14] = HepaRG cells, 5,000 nM antisense oligonucleotide, 5-10-5 gapmers, Table 16

## 547736 (eT*eG*eG*eT*eA*dG*dG*dA*dT*dT*dG*dG*dT*dG*dG*eT*eG*eG*eG*eA; antisense) [compound 547736]
[1]
  % inhibition: 54%

## 547498 (antisense e[5mC]*eT*eG*eG*eA*d[5mC]*dT*dG*d[5mC]*dT*dT*d[5mC]*dT*d[5mC]*dA*eT*eG*e[5mC]*eT*eG) [compound 547498]
[2]
  % inhibition: 44%

## 547021 (eT*eT*eG*eG*eT*dG*dG*d[5mC]*dG*dG*dG*dA*dT*d[5mC]*dG*eG*eT*eG*eG*eT; antisense) [compound 547021]
[1]
  % inhibition: 57%

## 547308 (antisense eT*e[5mC]*eA*eA*eG*dA*dA*dG*d[5mC]*dA*dA*d[5mC]*d[5mC]*dA*dA*eA*e[5mC]*e[5mC]*eT*eT) [compound 547308]
[3]
  % inhibition: 66%

## 546837 (eT*eA*eT*eA*eA*d[5mC]*dT*d[5mC]*dT*dA*dA*d[5mC]*dA*dG*dT*eA*eT*e[5mC]*eA*e[5mC]; antisense) [compound 546837]
[4]
  % inhibition: 0%

## 546181 (antisense eT*eG*eA*e[5mC]*e[5mC]*dA*d[5mC]*dA*dT*dT*dG*d[5mC]*dT*dT*d[5mC]*eA*eA*eG*eG*eA) [compound 546181]
[5]
  % inhibition: 75%

## 547401 (eG*eA*eA*eT*eG*dG*d[5mC]*dA*dG*dG*dG*dT*dT*d[5mC]*dA*eG*eG*eT*eA*eA; antisense) [compound 547401]
[6]
  % inhibition: 22%

## 547386 (eA*e[5mC]*eT*eT*eG*dG*dT*dG*dT*dG*d[5mC]*d[5mC]*dA*d[5mC]*dT*eT*eT*e[5mC]*eA*eG; antisense) [compound 547386]
[6]
  % inhibition: 78%

## 548768 (antisense eG*eT*eA*eT*d[5mC]*dA*d[5mC]*dT*dG*dT*d[5mC]*d[5mC]*dT*eA*eT*eA*eT) [compound 548768]
[7]
  % inhibition: 56%

## 546316 (antisense eG*e[5mC]*e[5mC]*eT*eG*dG*dA*dG*dT*dT*dT*dT*dA*dT*d[5mC]*eA*eA*eG*eG*e[5mC]) [compound 546316]
[8]
  % inhibition: 51%
[9]
  % inhibition: 60%

## 546352 (antisense e[5mC]*eA*e[5mC]*e[5mC]*eA*dG*dG*dT*dT*dG*d[5mC]*dT*d[5mC]*d[5mC]*d[5mC]*eT*eG*e[5mC]*eG*eG) [compound 546352]
[8]
  % inhibition: 75%
[9]
  % inhibition: 74%

## 546493 (e[5mC]*eA*eT*eA*e[5mC]*dT*d[5mC]*dG*d[5mC]*d[5mC]*dT*dT*dT*dG*dT*eG*eA*e[5mC]*eT*e[5mC]; antisense) [compound 546493]
[10]
  % inhibition: 35%

## 547651 (eT*eG*eT*eA*e[5mC]*d[5mC]*dT*dA*dT*dA*dA*d[5mC]*dA*dG*dT*eA*eT*e[5mC]*eA*e[5mC]; antisense) [compound 547651]
[11]
  % inhibition: 48%

## 547272 (e[5mC]*eA*e[5mC]*eT*eT*dA*dA*dA*dA*dA*dT*dG*dA*dA*d[5mC]*eG*eG*eT*e[5mC]*eT; antisense) [compound 547272]
[3]
  % inhibition: 82%

## 547646 (e[5mC]*eT*eA*eT*eA*dT*d[5mC]*dA*d[5mC]*dT*dG*dT*dA*d[5mC]*d[5mC]*eT*eA*eT*eA*eA; antisense) [compound 547646]
[11]
  % inhibition: 23%

## 547619 (antisense eT*e[5mC]*e[5mC]*eT*eA*dT*dA*dA*d[5mC]*dA*dG*dT*dA*dT*d[5mC]*eA*e[5mC]*eT*eG*eT) [compound 547619]
[12]
  % inhibition: 70%

## 546293 (antisense eG*e[5mC]*e[5mC]*eT*e[5mC]*dT*dG*dA*dG*d[5mC]*dT*dG*dT*d[5mC]*dA*eG*e[5mC]*eT*eT*e[5mC]) [compound 546293]
[13]
  % inhibition: 64%

## 546918 (eA*eA*e[5mC]*eA*eT*d[5mC]*dA*d[5mC]*dT*dG*dT*dA*d[5mC]*d[5mC]*dT*eA*eT*eA*eA*e[5mC]; antisense) [compound 546918]
[14]
  % inhibition: 14%

## 546140 (eG*e[5mC]*eT*eT*eG*d[5mC]*dT*dT*dG*dA*dA*dT*dA*dA*dA*eA*eT*e[5mC]*eA*eT; antisense) [compound 546140]
[3]
  % inhibition: 60%

## 547437 (antisense e[5mC]*eT*e[5mC]*eT*e[5mC]*d[5mC]*d[5mC]*d[5mC]*dA*dA*dG*dA*dA*dG*dA*eG*eT*eT*eT*eG) [compound 547437]
[13]
  % inhibition: 50%

## 547315 (antisense eA*eA*e[5mC]*eT*eG*d[5mC]*dA*d[5mC]*d[5mC]*dT*dG*dT*dT*d[5mC]*dG*eA*eT*eG*eT*eA) [compound 547315]
[5]
  % inhibition: 50%

## 546503 (eG*eT*eG*eA*eT*dG*d[5mC]*dG*dA*dT*dT*dT*dT*d[5mC]*d[5mC]*eA*eT*eG*e[5mC]*eA; antisense) [compound 546503]
[10]
  % inhibition: 53%

## 546380 (antisense eG*e[5mC]*e[5mC]*eA*e[5mC]*dT*d[5mC]*dT*d[5mC]*d[5mC]*dA*dT*dG*d[5mC]*dT*eT*eT*eG*e[5mC]*eA) [compound 546380]
[2]
  % inhibition: 81%

## 547565 (e[5mC]*eT*eT*eA*eT*d[5mC]*dA*dG*dT*d[5mC]*d[5mC]*d[5mC]*dA*dG*dT*e[5mC]*eA*eT*eG*eT; antisense) [compound 547565]
[4]
  % inhibition: 63%

## 547017 (eG*eG*eT*eA*eG*dG*dT*dG*dG*dT*dG*dG*dG*dA*dT*eT*eG*eG*eT*eG; antisense) [compound 547017]
[1]
  % inhibition: 61%

## 547707 (antisense eT*eG*eA*eA*eA*dA*dG*d[5mC]*d[5mC]*dA*d[5mC]*dG*d[5mC]*d[5mC]*d[5mC]*eT*eT*eA*eG*e[5mC]) [compound 547707]
[14]
  % inhibition: 32%

## 547671 (e[5mC]*eT*eA*e[5mC]*eA*dA*d[5mC]*dT*dA*dT*dA*dA*d[5mC]*dA*dG*eT*eA*eT*e[5mC]*eA; antisense) [compound 547671]
[11]
  % inhibition: 0%

## 547620 (antisense eT*eT*e[5mC]*e[5mC]*eT*dA*dT*dA*dA*d[5mC]*dA*dG*dT*dA*dT*e[5mC]*eA*e[5mC]*eT*eG) [compound 547620]
[12]
  % inhibition: 65%

## 546885 (eT*eA*eT*eG*eT*d[5mC]*dA*d[5mC]*dT*dG*dT*dA*d[5mC]*d[5mC]*dT*eA*eT*eA*eA*e[5mC]; antisense) [compound 546885]
[11]
  % inhibition: 46%

## 546275 (eG*eA*eA*e[5mC]*e[5mC]*dA*dT*d[5mC]*d[5mC]*dA*dT*dA*dG*dA*dT*eA*eA*eT*e[5mC]*eT; antisense) [compound 546275]
[13]
  % inhibition: 87%

## 546373 (antisense e[5mC]*eT*e[5mC]*eA*eG*dA*dA*dT*dT*dT*dG*dA*d[5mC]*dT*dT*eG*eA*eA*e[5mC]*eT) [compound 546373]
[2]
  % inhibition: 59%

## 547385 (eT*eG*eT*eG*e[5mC]*d[5mC]*dA*d[5mC]*dT*dT*dT*d[5mC]*dA*dG*dA*eT*eG*eT*eT*eT; antisense) [compound 547385]
[6]
  % inhibition: 80%

## 546879 (eT*eT*eT*e[5mC]*e[5mC]*dT*dA*dT*dA*dA*d[5mC]*dA*dG*dT*dA*eT*e[5mC]*eA*e[5mC]*eT; antisense) [compound 546879]
[12]
  % inhibition: 42%

## 546902 (e[5mC]*eA*e[5mC]*eT*eG*dT*d[5mC]*d[5mC]*dT*dA*dT*dA*dA*d[5mC]*dT*eA*eT*eA*eA*e[5mC]; antisense) [compound 546902]
[11]
  % inhibition: 71%

## 548749 (antisense eT*eG*eT*eA*d[5mC]*dT*dA*dG*dT*dT*dT*d[5mC]*d[5mC]*dT*eA*eT*eA*eA) [compound 548749]
[7]
  % inhibition: 0%

## 546295 (antisense e[5mC]*e[5mC]*e[5mC]*eA*e[5mC]*dT*dG*dG*dT*dG*dT*d[5mC]*d[5mC]*dT*dA*eT*eG*eA*eG*eT) [compound 546295]
[13]
  % inhibition: 67%

## 546327 (antisense eG*eG*eT*eT*eA*d[5mC]*d[5mC]*d[5mC]*dA*dA*d[5mC]*dA*dG*dT*dT*eG*eG*eT*eA*eT) [compound 546327]
[8]
  % inhibition: 95%
[9]
  % inhibition: 84%

## 547307 (antisense eG*eA*eA*eG*e[5mC]*dA*dA*d[5mC]*d[5mC]*dA*dA*dA*d[5mC]*d[5mC]*dT*eT*eT*eT*e[5mC]*eT) [compound 547307]
[3]
  % inhibition: 58%

## 548714 (DNA eT*e[5mC]*eA*d[5mC]*dT*dG*dT*dA*d[5mC]*dT*dA*dG*dT*eT*eT*e[5mC]; antisense) [compound 548714]
HepaRG cells, 5,000 nM antisense oligonucleotide, human PKK mRNA, Table 18
  % inhibition: 15%

## 547729 (eG*eT*eG*eA*eG*dA*dT*dT*dG*dG*dT*dG*dG*dT*dG*eG*eG*eT*eG*eG; antisense) [compound 547729]
[1]
  % inhibition: 45%

## 547686 (antisense e[5mC]*eT*eG*eT*e[5mC]*d[5mC]*dT*dA*dT*dA*dA*d[5mC]*dT*dA*dT*eA*eT*e[5mC]*eA*e[5mC]) [compound 547686]
[14]
  % inhibition: 36%

## 546318 (antisense eA*eT*eT*e[5mC]*eA*dA*dA*dG*dG*dA*dG*d[5mC]*d[5mC]*dT*dG*eG*eA*eG*eT*eT) [compound 546318]
[8]
  % inhibition: 47%
[9]
  % inhibition: 46%
